According to patent US10875874B2, “Ginkgolide B derivative and preparation method and use thereof” (Chengdu Baiyu Ginkgolide Pharmaceuticals Co., Ltd., priority 2015, dated 2020):
Marks after values point to notes of the source that are not given here.

What was measured:
Format in all cases: in vivo, rat
[1] = Weekly food intake of SHR rats; details: captopril 27 mg/kg intragastric
Method: (§1) 2.1 Grouping and administration of animals: 112 SHR rats (the female and male SHR rats are half and half, and the female rats are not pregnant) with the body weight of 200-250 g are taken, the rats are enabled to adapt to a laboratory for a period of 5 d, blood pressure is measured once at a day to enable the rats to adapt to the environment and detect stimulation. Then, weighing and numbering are carried out, and the SHR rats are equally divided into 14 groups randomly (each group comprises 8 rats), i.e., an SHR rat model control group, a positive control group (captopril, 27 mg/kg), a BZ large-dose group (120 mg/kg/d), a BZ small-dose group (60 mg/kg/d), a BA large-dose group (120 mg/kg/d), a BA small-dose group (60 mg/kg/d), a BL large-dose group (120 mg/kg/d), a BL small-dose group (60 mg/kg/d), a BM large-dose group (120 mg/kg/d), a BM small-dose group (60 mg/kg/d), a BD large-dose group (120 mg/kg/d), a BD small-dose group (60 mg/kg/d), a GB large-dose group (120 mg/kg/d) and a GB small-dose group (60 mg/kg/d). In addition, 8 healthy Wistar rats are taken as a normal control group. Intragastric administration is performed on the rats of each drug group separately according to the above-mentioned doses by 1 mL/100 g body weight, intragastric administration is performed on the rats of the normal control group and the rats of the SHR rat model control group with an equal volume of distilled water, and administration is performed continuously for 8 weeks.
(§2) 2.2 General state: during observation, conditions such as mind, water drinking, food intake, bowel movement, hair color, body weight and range of motion of rats are observed. Irritable degrees of the rats are divided into III levels: a level I means that the rats are free of obvious response when necks of the rats are seized; a level II means that the rats scream and startle when the necks of the rats are seized; and a level III means that the rats bite or rats of same cages frequently fight when the necks of the rats are seized.
(§3) 3.1 Influence on general state of spontaneously hypertensive rats: the rats of the normal control group are normal in food intake, drinking and motion conditions, sensitive in response, healthy and glossy in hair color, good in mental state and free of any unusual response; the rats of the SHR model group gradually present that back hair is fluffy, clustered and dim, the appetite is reduced, the body weight is reduced, the mind is dispirited and irritable, and the rats are prone to the behaviors of intense resisting, attacking and so on during administration and blood pressure detection, and irritable degrees are mostly changed to a level II and a level III from a level I; and after single administration of ginkgolide B and derivatives thereof, behavioral general state observations of rats of each group are free of obvious difference from those of the model control group.

[2] = Weekly body weight of SHR rats; details: captopril 27 mg/kg intragastric
Method: as §1, §2, §3

[3] = test system: spontaneously hypertensive rats (SHR); test: Caudal artery systolic pressure of spontaneously hypertensive rats, single administration; details: captopril 27 mg/kg intragastric single administration, x ± s, n = 8
Method: as §1
(§4) 2.3 Blood pressure measuring: caudal artery systolic pressure of rats is measured with a Bp-6 noninvasive blood pressure measuring system. Under the condition that the rats are calm, the systolic pressure is continuously measured for 3 times, and the average value of the measured systolic pressure is taken as a pressure measuring result. Observation indexes: (1) single-administration pressure lowering effect: blood pressure of the rats is measured before administration and blood pressure conditions are measured 30 min, 60 min, 90 min and 120 min after first administration; and (2) continuous-administration pressure lowering condition: blood pressure is separately measured 30 min after administration at 1 d, 7 d, 13 d, 19 d, 25 d, 35 d, 49 d and 56 d, the blood pressure is repeatedly measured for 3 times at a day, and the average value of obtained values is taken as a final blood pressure value.

[4] = test system: spontaneously hypertensive rats (SHR); test: Caudal artery systolic pressure of spontaneously hypertensive rats, 8 weeks of continuous medication; details: captopril 27 mg/kg intragastric continuous, x ± s, n = 8
Method: as §1, §4

In the case of `C[C@H](CS)C(=O)N1CCC[C@H]1C(=O)O` [Positive control, captopril, reference compound], the “Average dairy food intake” value ([1]; week 0) is reported as 18.4 g/day, the “Average dairy food intake” value ([1]; week 1) is reported as 20.0^▴ g/d and the “Average dairy food intake” value ([1]; week 2) is reported as 19.1^▴ g/d. For the same compound, the “Average dairy food intake” value ([1]; week 3) was 19.5^▴ g/d, the “Average dairy food intake” value ([1]; week 4) was 19.9^▴ g/d and the “Average dairy food intake” value ([1]; week 5) was 21.4^▴▴ g/d. The “Average dairy food intake” value ([1]; week 6) was 23.8^▴▴ g/d, the “Average dairy food intake” value ([1]; week 7) was 24.6^▴▴ g/d and the “Average dairy food intake” value ([1]; week 8) was 26.3^▴▴ g/d. For the same compound, the Body weight ([2]; week 0) was 230.5 g, the Body weight ([2]; week 1) was 235.1 g and the Body weight ([2]; week 2) was 245.4^▴ g. The Body weight ([2]; week 3) was 255.9^▴▴ g, the Body weight ([2]; week 4) was 260.5^▴▴ g and the Body weight ([2]; week 5) was 266.3^▴▴ g. The Body weight ([2]; week 6) was 271.0^▴▴ g, the Body weight ([2]; week 7) was 280.6^▴▴ g and the Body weight ([2]; week 8) was 290.7^▴▴ g. The Systolic pressure ([3]; 30 min) was 149.75 ± 8.09 mmHg, the Systolic pressure ([3]; 60 min) was 140.95 ± 9.50 mmHg and the Systolic pressure ([3]; 90 min) was 139.23 ± 6.04 mmHg. The Systolic pressure ([3]; 120 min) was 134.41 ± 8.31 mmHg, the Systolic pressure ([3]; before administration) was 161.24 ± 11.03 mmHg and the Systolic pressure ([4]; 1 d, 30 min after administration) was 145.17 ± 6.42 mmHg. The Systolic pressure ([4]; 7 d, 30 min after administration) was 142.05 ± 7.24 mmHg, the Systolic pressure ([4]; 13 d, 30 min after administration) was 140.36 ± 9.20 mmHg and the Systolic pressure ([4]; 19 d, 30 min after administration) was 138.39 ± 7.26 mmHg. It also gave a Systolic pressure ([4]; 25 d, 30 min after administration) of 145.02 ± 7.30 mmHg, a Systolic pressure ([4]; 35 d, 30 min after administration) of 139.08 ± 6.72 mmHg and a Systolic pressure ([4]; 49 d, 30 min after administration) of 135.47 ± 8.47 mmHg. For the same compound, the Systolic pressure ([4]; 56 d, 30 min after administration) was 130.39 ± 4.65 mmHg and the Systolic pressure ([4]; before administration) was 161.24 ± 11.03 mmHg.
